Measured values from patent US9433609B2, “Benzimidazole-imidazole derivatives” (Janssen Sciences Ireland UC, priority 2009, dated 2016).

Columns and labels:
[1] = Counterscreen MT4-LTR-Luc; format: cell-based; details: human
Description: Counterscreen cell lines included a Huh-7 hepatoma cell line containing a human cytomegalovirus major immediate-early promoter-Luc construct (Huh7-CMV-Luc) and an MT4 T-cell line containing a long terminal repeat-Luc reporter (MT4-LTR-Luc).

[2] = system: HCV genotype 1b replicon with NS5A R30H; experiment: Transient HCV 1b replicon assay, NS5A mutant R30H; format: cell-based; details: Hepatitis C virus, read-out: EC50 R30H
Description: In a transient set-up, a Huh-7 lunet hepatoma cell line was transiently transfected with an autonomously replicating RNA encoding a bi-cistronic expression construct. This construct comprises a firefly luciferase reporter gene preceding the NS3-NS5B subgenomic region of HCV (genotype 1a H77 or 1b Con1). Translation of the HCV subgenomic region is mediated by an internal ribosome entry site of encephalomyocarditis virus. The construct is furthermore flanked by 5′ and 3′ untranslated regions of HCV (genotype 1a H77 or 1b Con 1, respectively), which allow for replication of the RNA.
In addition to the wild-type constructs, site-directed mutations were introduced into the transient HCV genotype 1b replicon in the gene encoding for the non-structural protein 5A (NS5A). More precisely, amino acid residues 28, 30, 31 and 93 in NS5A were independently altered.
Cells were plated in 384 well plates in the presence of test and control compounds, which were added in various concentrations. Following an incubation of two days, replication of the HCV subgenomic replicon RNA was measured by assaying luciferase activity (using standard luciferase assay substrates and reagents and a Perkin Elmer ViewLux™ ultraHTS microplate imager). […] The inhibitory activity of the compound was monitored, enabling a dose-response curve for each test compound. […]

COC(=O)N[C@H](C(=O)N1CCC[C@H]1c1ncc(-c2ccc(-c3ccc4nc([C@@H]5CCCN5C(=O)[C@@H](NC(=O)OC)C(C)C)[nH]c4c3)cc2)[nH]1)C(C)C [Compound 1]
CC50 [1]: > 984 nM | EC50 [2]: 0.6 nM
